Source: ChEMBL document CHEMBL4049398, “Microscale High-Throughput Experimentation as an Enabling Technology in Drug Discovery: Application in the Discovery of (Piperidinyl)pyridinyl-1H-benzimidazole Diacylglycerol Acyltransferase 1 Inhibitors” (J Med Chem, 2017)
Converted amounts (≈) assume the structure as drawn.

Legend:
[1] = target: T1, Diacylglycerol O-acyltransferase 1 (Homo sapiens, UniProt O75907); assay: Inhibition of human DGAT1 expressed in yeast membrane fraction assessed as inhibition of triglyceride formation using diolein/oleoyl-CoA as substrate measured after 1 hr by 7-diethylamino-3-(4'-maleimidylphenyl)-4-methylcoumarin based fluorescence analysis; format: cell membranes
T1 sequence (O75907 whole entry): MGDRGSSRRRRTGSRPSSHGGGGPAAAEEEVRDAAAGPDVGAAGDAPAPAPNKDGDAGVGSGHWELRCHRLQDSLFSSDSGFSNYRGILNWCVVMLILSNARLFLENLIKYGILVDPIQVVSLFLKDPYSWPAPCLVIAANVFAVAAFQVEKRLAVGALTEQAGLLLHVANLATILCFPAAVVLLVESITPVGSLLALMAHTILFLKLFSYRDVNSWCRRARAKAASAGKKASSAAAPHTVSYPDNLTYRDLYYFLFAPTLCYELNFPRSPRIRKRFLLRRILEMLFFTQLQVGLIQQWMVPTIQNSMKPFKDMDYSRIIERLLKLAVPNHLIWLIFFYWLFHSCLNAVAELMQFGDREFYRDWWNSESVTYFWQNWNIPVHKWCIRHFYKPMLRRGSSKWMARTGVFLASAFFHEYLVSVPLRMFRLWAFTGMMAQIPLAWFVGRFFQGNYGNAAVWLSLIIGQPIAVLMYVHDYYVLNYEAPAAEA

Cytochrome P450 2C9 = Cytochrome P450 2C9 (Homo sapiens, UniProt P11712); assay: Inhibition of CYP2C9 (unknown origin); format: ADME
[2] = Solubility of the compound at pH 2; format: physicochemical; conditions: buffer
Cytochrome P450 3A4 = Cytochrome P450 3A4 (Homo sapiens, UniProt P08684); assay: Inhibition of CYP3A4 (unknown origin); format: ADME
[3] = target: T2, Nuclear receptor subfamily 1 group I member 2 (Homo sapiens, UniProt O75469); assay: Inhibition of PXR (unknown origin); format: ADME
T2 sequence (O75469 whole entry): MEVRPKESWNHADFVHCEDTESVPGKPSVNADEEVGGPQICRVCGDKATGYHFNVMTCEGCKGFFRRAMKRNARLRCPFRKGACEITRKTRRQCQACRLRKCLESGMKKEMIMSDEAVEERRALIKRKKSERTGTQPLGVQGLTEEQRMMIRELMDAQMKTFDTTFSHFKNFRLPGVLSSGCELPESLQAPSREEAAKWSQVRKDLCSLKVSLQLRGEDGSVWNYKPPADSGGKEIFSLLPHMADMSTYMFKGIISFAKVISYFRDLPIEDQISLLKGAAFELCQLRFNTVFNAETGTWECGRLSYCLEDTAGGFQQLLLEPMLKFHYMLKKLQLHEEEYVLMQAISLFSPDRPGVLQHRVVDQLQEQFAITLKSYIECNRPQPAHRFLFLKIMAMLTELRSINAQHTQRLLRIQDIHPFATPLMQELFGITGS

[4] = Lipophilicity, log D of the compound; format: physicochemical; conditions: octanol/water
Mus musculus [5] = assay: Reduction in triglyceride level in mouse plasma at 10 mg/kg,po after 18 hrs by lipid tolerance test; format: functional
Mus musculus [6] = assay: Reduction in triglyceride level in mouse plasma at 30 mg/kg, po after 18 hrs by lipid tolerance test; format: functional
[7] = Solubility of the compound at pH 7; format: physicochemical; conditions: buffer
[8] = target: Voltage-gated inwardly rectifying potassium channel KCNH2 (Homo sapiens, UniProt Q12809); assay: Inhibition of MK499 binding to human ERG
Rattus norvegicus = assay: Intrinsic clearance Wistar Han rat at 1 mg/kg, iv; format: ADME, organism-based; conditions: in vivo
[9] = target: T3, Diacylglycerol O-acyltransferase 1 (Mus musculus, UniProt Q9Z2A7); assay: Inhibition of mouse DGAT1 assessed as inhibition of triglyceride formation
T3 sequence (Q9Z2A7 whole entry): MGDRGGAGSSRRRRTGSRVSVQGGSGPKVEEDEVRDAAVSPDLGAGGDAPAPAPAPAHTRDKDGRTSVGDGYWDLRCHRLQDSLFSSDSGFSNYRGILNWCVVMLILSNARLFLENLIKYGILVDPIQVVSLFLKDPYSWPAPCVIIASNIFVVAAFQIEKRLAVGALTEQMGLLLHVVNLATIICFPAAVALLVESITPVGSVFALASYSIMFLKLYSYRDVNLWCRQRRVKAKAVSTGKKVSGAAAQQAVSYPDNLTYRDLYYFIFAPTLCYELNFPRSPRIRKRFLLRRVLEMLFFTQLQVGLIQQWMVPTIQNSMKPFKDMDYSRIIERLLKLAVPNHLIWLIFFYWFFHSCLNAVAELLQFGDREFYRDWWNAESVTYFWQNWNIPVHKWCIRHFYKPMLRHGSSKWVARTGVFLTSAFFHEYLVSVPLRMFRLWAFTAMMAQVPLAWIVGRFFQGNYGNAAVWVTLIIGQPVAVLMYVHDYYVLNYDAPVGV

Sequence of Cytochrome P450 2C9 (P11712 whole entry): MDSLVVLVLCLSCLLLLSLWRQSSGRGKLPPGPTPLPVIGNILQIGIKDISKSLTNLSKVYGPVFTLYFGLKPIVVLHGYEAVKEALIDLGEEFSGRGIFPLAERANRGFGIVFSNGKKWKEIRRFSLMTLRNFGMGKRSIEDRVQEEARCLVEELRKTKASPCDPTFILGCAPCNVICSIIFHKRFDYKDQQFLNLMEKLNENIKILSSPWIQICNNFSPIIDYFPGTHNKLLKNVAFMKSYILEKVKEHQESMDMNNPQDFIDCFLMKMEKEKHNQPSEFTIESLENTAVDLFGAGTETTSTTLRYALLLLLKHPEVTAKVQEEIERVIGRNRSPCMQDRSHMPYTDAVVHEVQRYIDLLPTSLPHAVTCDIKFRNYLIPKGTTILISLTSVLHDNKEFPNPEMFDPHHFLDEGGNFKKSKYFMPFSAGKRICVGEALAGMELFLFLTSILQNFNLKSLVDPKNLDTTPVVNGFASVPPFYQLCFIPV
Sequence of Voltage-gated inwardly rectifying potassium channel KCNH2 (Q12809 whole entry): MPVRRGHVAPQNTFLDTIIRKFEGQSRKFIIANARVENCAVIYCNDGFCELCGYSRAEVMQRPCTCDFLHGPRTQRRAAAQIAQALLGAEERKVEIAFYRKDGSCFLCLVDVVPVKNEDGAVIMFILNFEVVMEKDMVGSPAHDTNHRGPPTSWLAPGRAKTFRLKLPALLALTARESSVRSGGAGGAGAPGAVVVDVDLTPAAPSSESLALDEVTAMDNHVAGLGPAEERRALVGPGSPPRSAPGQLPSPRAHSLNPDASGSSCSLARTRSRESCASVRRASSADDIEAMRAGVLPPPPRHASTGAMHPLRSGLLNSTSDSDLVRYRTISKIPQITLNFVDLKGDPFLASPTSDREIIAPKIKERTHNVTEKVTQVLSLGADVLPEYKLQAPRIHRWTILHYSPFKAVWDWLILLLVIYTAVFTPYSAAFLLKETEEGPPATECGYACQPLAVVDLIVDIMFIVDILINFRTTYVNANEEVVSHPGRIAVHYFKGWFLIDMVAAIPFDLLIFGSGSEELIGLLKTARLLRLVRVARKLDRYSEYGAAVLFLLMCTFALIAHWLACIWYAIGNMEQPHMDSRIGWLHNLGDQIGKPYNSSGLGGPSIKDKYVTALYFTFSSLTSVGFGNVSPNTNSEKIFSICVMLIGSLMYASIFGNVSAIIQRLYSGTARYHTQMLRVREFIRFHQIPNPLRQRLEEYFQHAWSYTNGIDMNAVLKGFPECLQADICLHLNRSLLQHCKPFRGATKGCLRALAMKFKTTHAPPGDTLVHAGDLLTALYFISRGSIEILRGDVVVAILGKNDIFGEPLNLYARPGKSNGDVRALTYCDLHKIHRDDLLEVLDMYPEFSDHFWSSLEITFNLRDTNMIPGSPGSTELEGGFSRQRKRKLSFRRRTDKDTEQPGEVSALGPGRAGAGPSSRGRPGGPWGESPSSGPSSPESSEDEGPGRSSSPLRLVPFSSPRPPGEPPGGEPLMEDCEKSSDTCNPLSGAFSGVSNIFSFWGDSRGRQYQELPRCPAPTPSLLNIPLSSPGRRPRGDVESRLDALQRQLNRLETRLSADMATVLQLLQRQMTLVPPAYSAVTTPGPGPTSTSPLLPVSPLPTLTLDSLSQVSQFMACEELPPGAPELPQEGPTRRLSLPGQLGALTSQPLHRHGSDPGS
Sequence of Cytochrome P450 3A4 (P08684 whole entry): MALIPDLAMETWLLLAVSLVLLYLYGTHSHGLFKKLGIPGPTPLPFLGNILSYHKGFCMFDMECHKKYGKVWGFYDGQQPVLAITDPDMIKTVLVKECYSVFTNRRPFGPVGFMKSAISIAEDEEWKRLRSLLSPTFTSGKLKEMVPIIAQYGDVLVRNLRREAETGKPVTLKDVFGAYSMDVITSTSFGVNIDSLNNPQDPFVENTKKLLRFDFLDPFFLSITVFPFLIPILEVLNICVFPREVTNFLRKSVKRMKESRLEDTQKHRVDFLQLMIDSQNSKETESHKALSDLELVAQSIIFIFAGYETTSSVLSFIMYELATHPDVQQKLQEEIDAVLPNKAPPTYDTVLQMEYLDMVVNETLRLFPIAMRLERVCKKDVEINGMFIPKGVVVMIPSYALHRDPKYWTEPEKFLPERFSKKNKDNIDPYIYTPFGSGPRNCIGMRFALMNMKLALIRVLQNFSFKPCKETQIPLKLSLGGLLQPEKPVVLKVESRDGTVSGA

| Structure (SMILES) | IC50 [1] | IC50 (Cytochrome P450 2C9) | solubility ([2]; read-out: solubility) | IC50 (Cytochrome P450 3A4) | IC50 [3] | logD ([4]; read-out: logD) | solubility ([7]; read-out: solubility) | IC50 [8] | other results |
| --- | --- | --- | --- | --- | --- | --- | --- | --- | --- |
| O=C1OC2(CCN(c3ccc(-c4nc5cc(Cl)ccc5[nH]4)cn3)CC2)c2cnccc21 | 0.066 µM | – | – | – | – | – | – | – | – |
| FC(F)(F)c1ccc2[nH]c(-c3ccc(N4CCC(c5ccccc5)(c5ccccc5)CC4)nc3)nc2c1 | 1.64 µM | – | – | – | – | – | – | – | – |
| O=C(O)C1CCC2(CCN(c3ccc(-c4nc5cc(C(F)(F)F)ccc5[nH]4)cn3)CC2)CO1 (stereo unspecified) | 0.364 µM | – | 167 µM (≈ 76.9 µg/mL) | – | – | 1.54 | 154 µM (≈ 70.9 µg/mL) | – | – |
| Clc1ccc2[nH]c(-c3ccc(N4C[C@@H]5C[C@H]4CN5c4ccccc4)nc3)nc2c1 | > 10 µM | – | – | – | – | – | – | – | – |
| O=C(O)C1CCC2(CCN(c3ccc(-c4nc5cc(C(F)(F)F)ccc5[nH]4)cn3)CC2)OC1 (stereo unspecified) | – | > 50 µM | 174 µM (≈ 80.1 µg/mL) | > 50 µM | > 30 µM | 1.52 | 163 µM (≈ 75.1 µg/mL) | 14.7 µM | – |
| FC(F)(F)c1ccc2[nH]c(-c3ccc(N4CCC(c5ccccn5)CC4)nc3)nc2c1 | 0.062 µM | – | – | – | – | – | – | – | – |
| FC(F)(F)c1ccc2[nH]c(-c3ccc(N4CCC5(CC4)OC(Cc4cc(Cl)cc(Cl)c4)c4ccccc45)nc3)nc2c1 (stereo unspecified) | 8.7 µM | – | – | – | – | – | – | – | – |
| O=C1OC2(CCN(c3ccc(-c4nc5cc(Cl)ccc5[nH]4)cn3)CC2)c2ncccc21 | 0.01 µM | 3.4 µM | < 10 µM | – | – | – | – | – | – |
| N#Cc1ccc(N2C(=O)NC3(CCN(c4ccc(-c5nc6cc(C(F)(F)F)ccc6[nH]5)cn4)CC3)C2=O)cc1 | 0.377 µM | – | – | – | – | – | – | – | – |
| O=C1OC2(CCN(c3ccc(-c4nc5cc(Cl)ccc5[nH]4)cn3)CC2)c2ccccc21 | 0.052 µM | – | – | – | – | – | – | – | – |
| O=C(O)c1ccc2c(c1)C(=O)OC21CCN(c2ccc(-c3nc4cc(C(F)(F)F)ccc4[nH]3)cn2)CC1 | – | – | < 10 µM | – | – | – | – | 0.56 µM | – |
| Cc1cccc(Cl)c1NC(=O)N1CCN(c2ccc(-c3nc4cc(C(F)(F)F)ccc4[nH]3)cn2)CC1 | 0.089 µM | – | – | – | – | – | – | – | – |
| O=S1(=O)CCC(N2CCN(c3ccc(-c4nc5cc(C(F)(F)F)ccc5[nH]4)cn3)CC2)C1 (stereo unspecified) | 0.131 µM | – | – | – | – | – | – | – | – |
| CS(=O)(=O)C1CCN(c2ccc(-c3nc4cc(C(F)(F)F)ccc4[nH]3)cn2)CC1 | 0.216 µM | – | – | – | – | – | – | – | – |
| Clc1ccc2[nH]c(-c3ccc(N4CCC5(CC4)OCc4ccccc45)nc3)nc2c1 | 0.137 µM | – | – | – | – | – | – | – | – |
| O=C(O)CC1CCC2(CC1)CCN(c1ccc(-c3nc4cc(C(F)(F)F)ccc4[nH]3)cn1)CC2 | 0.006 µM | 10.8 µM | < 4 µM | 6.4 µM | > 30 µM | 1.76 | 45 µM (≈ 21.3 µg/mL) | – | – |
| O=C1OC2(CCN(c3ccc(-c4nc5cc(C(F)(F)F)ccc5[nH]4)cn3)CC2)CN1c1ccccc1 | 1.41 µM | – | – | – | – | – | – | – | – |
| O=C(O)CN1CCC2(CC1)CCN(c1ccc(-c3nc4cc(C(F)(F)F)ccc4[nH]3)cn1)CC2 | > 10 µM | > 50 µM | 207 µM (≈ 98 µg/mL) | > 50 µM | > 30 µM | 1.38 | 168 µM (≈ 79.5 µg/mL) | 4.8 µM | – |
| O=C(O)CC1CCC2(CCN(c3ccc(-c4nc5cc(C(F)(F)F)ccc5[nH]4)cn3)CC2)O1 (single isomer, unassigned; form 1) | – | – | – | – | – | – | – | 16 µM | solubility [2]: > 200 µM; logD [4]: 1.52; solubility [7]: 190 µM (≈ 87.5 µg/mL) |

Further lines, with some results ahead:

| IC50 [1] | IC50 (Cytochrome P450 2C9) | solubility ([2]; read-out: solubility) | IC50 (Cytochrome P450 3A4) | IC50 [3] | logD ([4]; read-out: logD) | solubility ([7]; read-out: solubility) | Structure (SMILES) | IC50 [8] | other results |
| --- | --- | --- | --- | --- | --- | --- | --- | --- | --- |
| – | > 50 µM | 171 µM (≈ 78.7 µg/mL) | > 50 µM | > 30 µM | 1.44 | 158 µM (≈ 72.8 µg/mL) | O=C(O)C[C@@H]1COC2(CCN(c3ccc(-c4nc5cc(C(F)(F)F)ccc5[nH]4)cn3)CC2)C1 | – | inhibition in vivo at 10 mg/kg (Mus musculus [5]): 32%; inhibition in vivo at 30 mg/kg (Mus musculus [6]): 54% |
| – | > 50 µM | 170 µM (≈ 78.3 µg/mL) | > 50 µM | > 30 µM | 1.45 | 153 µM (≈ 70.4 µg/mL) | O=C(O)C[C@H]1COC2(CCN(c3ccc(-c4nc5cc(C(F)(F)F)ccc5[nH]4)cn3)CC2)C1 | – | – |
| – | > 50 µM | 179 µM (≈ 84.9 µg/mL) | > 50 µM | > 30 µM | 1.52 | 172 µM (≈ 81.6 µg/mL) | O=C(O)CC1CCC2(CCN(c3ccc(-c4nc5cc(C(F)(F)F)ccc5[nH]4)cn3)CC2)OC1 (racemic) | 7.8 µM | – |
| – | > 50 µM | 185 µM (≈ 87.8 µg/mL) | > 50 µM | > 30 µM | 1.43 | 184 µM (≈ 87.3 µg/mL) | O=C(O)CC1CCOC2(CCN(c3ccc(-c4nc5cc(C(F)(F)F)ccc5[nH]4)cn3)CC2)C1 (racemic) | – | – |
| – | > 50 µM | 170 µM (≈ 78.3 µg/mL) | > 50 µM | > 30 µM | 1.55 | 149 µM (≈ 68.6 µg/mL) | O=C(O)CC1CCC2(CCN(c3ccc(-c4nc5cc(C(F)(F)F)ccc5[nH]4)cn3)CC2)O1 (racemic) | > 60 µM | CL (Rattus norvegicus): 34.2 mL/min/kg |
| – | > 50 µM | 170 µM (≈ 78.3 µg/mL) | > 50 µM | > 30 µM | 1.51 | 182 µM (≈ 83.8 µg/mL) | O=C(O)CC1COC2(CCN(c3ccc(-c4nc5cc(C(F)(F)F)ccc5[nH]4)cn3)CC2)C1 (racemic) | – | IC50 [9]: 0.178 µM |
| – | 25.6 µM | – | 13.3 µM | > 30 µM | – | – | O=C(O)CC1CCC2(CCN(c3ccc(-c4nc5cc(C(F)(F)F)ccc5[nH]4)cn3)CC2)OC1 (single isomer, unassigned; ent B) | 1.2 µM | – |
| – | 39.5 µM | – | > 50 µM | > 30 µM | – | – | O=C(O)CC1CCC2(CCN(c3ccc(-c4nc5cc(C(F)(F)F)ccc5[nH]4)cn3)CC2)O1 (single isomer, unassigned; form 2) | 17.4 µM | solubility [2]: 163 µM (≈ 75.1 µg/mL); logD [4]: 1.58; solubility [7]: 147 µM (≈ 67.7 µg/mL) |
| – | 20.4 µM | – | 19.5 µM | > 30 µM | – | – | O=C(O)CC1CCC2(CCN(c3ccc(-c4nc5cc(C(F)(F)F)ccc5[nH]4)cn3)CC2)OC1 (stereo in doubt) | 0.8 µM | – |
| – | 45.2 µM | – | > 50 µM | > 30 µM | – | – | O=C(O)CC1CCOC2(CCN(c3ccc(-c4nc5cc(C(F)(F)F)ccc5[nH]4)cn3)CC2)C1 (stereo in doubt; form 1) | – | solubility [2]: 173 µM (≈ 82.1 µg/mL); logD [4]: 1.48; solubility [7]: 168 µM (≈ 79.7 µg/mL) |
| – | 35.1 µM | – | > 50 µM | > 30 µM | – | – | O=C(O)CC1CCOC2(CCN(c3ccc(-c4nc5cc(C(F)(F)F)ccc5[nH]4)cn3)CC2)C1 (stereo in doubt; form 2) | – | solubility [2]: 169 µM (≈ 80.2 µg/mL); logD [4]: 1.47; solubility [7]: 174 µM (≈ 82.6 µg/mL) |
